Results reported in patent US9682955B2, “Quinazoline derivatives useful as CB-1 inverse agonists” (Janssen Pharmaceutica NV, priority 2014, dated 2017).

How the values were obtained:
[1] = target: Human CB1R (Cannabanoid receptor 1) (Homo sapiens (Human), UniProt P21554); assay: CB-1 in vitro cAMP assay (HTRF); format: cell-based; conditions: mean where tested more than once
In short: (§1)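 HEK-293 cells stably transfected with the human receptor, plated overnight at 4E5 cells/mL. Compounds given as 1/3 serial dilutions from 10 mM DMSO stocks. Stimulation in HBSS/5 mM HEPES/0.1% BSA with 0.5 mM IBMX and forskolin (1.5 μM in buffer); cAMP measured by competitive HTRF immunoassay (d2-cAMP, cryptate anti-cAMP) against a cAMP standard curve.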

[2] = target: Human CB2R (Cannabanoid receptor 2) (Homo sapiens (Human), UniProt P34972); assay: CB-2 in vitro cAMP assay (HTRF); format: cell-based; conditions: mean where tested more than once
Chain of Human CB2R (Cannabanoid receptor 2) (P34972 whole entry): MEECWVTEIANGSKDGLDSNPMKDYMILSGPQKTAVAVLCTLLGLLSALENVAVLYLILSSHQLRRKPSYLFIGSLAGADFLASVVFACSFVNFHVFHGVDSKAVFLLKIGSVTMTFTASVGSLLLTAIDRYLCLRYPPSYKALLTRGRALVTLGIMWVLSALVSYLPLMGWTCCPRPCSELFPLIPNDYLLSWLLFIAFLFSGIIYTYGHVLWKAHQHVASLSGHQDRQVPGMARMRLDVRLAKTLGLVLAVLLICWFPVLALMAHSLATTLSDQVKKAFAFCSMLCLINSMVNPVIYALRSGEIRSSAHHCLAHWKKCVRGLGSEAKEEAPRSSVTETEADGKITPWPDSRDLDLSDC
In short: as §1

Chain of Human CB1R (Cannabanoid receptor 1) (P21554 whole entry): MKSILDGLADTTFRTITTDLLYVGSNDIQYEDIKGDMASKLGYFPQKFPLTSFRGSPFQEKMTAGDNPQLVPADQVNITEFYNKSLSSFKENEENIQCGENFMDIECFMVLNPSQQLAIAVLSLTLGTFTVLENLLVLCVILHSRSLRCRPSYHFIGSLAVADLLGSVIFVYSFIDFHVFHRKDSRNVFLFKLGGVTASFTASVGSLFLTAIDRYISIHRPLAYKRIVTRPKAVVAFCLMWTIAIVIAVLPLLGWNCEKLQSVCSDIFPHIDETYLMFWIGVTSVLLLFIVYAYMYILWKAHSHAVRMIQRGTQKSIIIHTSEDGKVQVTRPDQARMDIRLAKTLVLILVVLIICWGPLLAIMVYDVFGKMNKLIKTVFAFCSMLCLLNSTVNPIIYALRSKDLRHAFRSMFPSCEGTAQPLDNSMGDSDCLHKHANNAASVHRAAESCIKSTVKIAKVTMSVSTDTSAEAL

Compound	EC50 [1] [µM]	EC50 [2] [µM]
O=S(=O)(c1ccccc1)N1CCC(Nc2ncnc3ccc(C(c4ccc(Cl)cc4)c4ccc(Cl)cc4)cc23)CC1 [compound 109, 6-(bis(4-chlorophenyl)methyl)-N-(1-(phenylsulfonyl)piperidin-4-yl)quinazolin-4-amine]	0.004	> 10
CC(=O)Nc1nc(NC2CCN(S(=O)(=O)C(F)(F)F)CC2)c2cc(C(c3ccc(Cl)cc3)c3ccc(Cl)cc3)ccc2n1 [Compound #106, N-(6-(bis(4-chlorophenyl)methyl)-4-((1-((trifluoromethyl)sulfonyl)piperidin-4-yl)amino)quinazolin-2-yl)acetamide]	0.07	5.7
O=C(O)c1ccc(CN2CCC(Nc3ncnc4ccc(C(c5ccc(Cl)cc5)c5ccc(Cl)cc5)cc34)CC2)cc1 [compound 44, 4-((4-(6-(bis(4-chlorophenyl)methyl)quinazolin-4-ylamino)piperidin-1-yl)methyl)benzoic acid]	0.58	> 10
N#CC1(c2ccccc2)CCC(Nc2ncnc3ccc(C(c4ccc(Cl)cc4)c4ccc(Cl)cc4)cc23)CC1 (centres unmarked) [Compound #118, 4-((6-(bis(4-chlorophenyl)methyl)quinazolin-4-yl)amino)-1-phenylcyclohexanecarbonitrile]	0.011	0.196
COc1nc(NCc2ccc(C(F)(F)F)cc2)c2cc(C(c3ccc(Cl)cc3)c3ccc(Cl)cc3)ccc2n1 [Compound #85, 6-(bis(4-chlorophenyl)methyl)-2-methoxy-N-(4-(trifluoromethyl)benzyl)quinazolin-4-amine]	0.01	> 10
COC(=O)Cc1ccc(N2CCC(Nc3ncnc4ccc(C(c5ccc(Cl)cc5)c5ccc(Cl)cc5)cc34)CC2)cc1 [Compound #79, Methyl 2-(4-(4-((6-(bis(4-chlorophenyl)methyl)quinazolin-4-yl)amino)piperidin-1-yl)phenyl)acetate]	0.004	0.173
O=S(=O)(c1ccc(F)cc1)N1CCC(Nc2ncnc3ccc(C(c4ccc(Cl)cc4)c4ccc(Cl)cc4)cc23)CC1 [compound 121, 6-(bis(4-chlorophenyl)methyl)-N-(1-(4-fluorophenylsulfonyl)piperidin-4-yl)quinazolin-4-amine]	0.003	2.14
Clc1ccc(C(c2ccc(Cl)cc2)c2ccc3ncnc(NC4CCN(c5ccccc5)CC4)c3c2)cc1 [Compound #137, 6-(bis(4-chlorophenyl)methyl)-N-(1-phenylpiperidin-4-yl)quinazolin-4-amine]	0.002	0.28
O=S(=O)(c1ccccc1F)N1CCC(Nc2ncnc3ccc(C(c4ccc(Cl)cc4)c4ccc(Cl)cc4)cc23)CC1 [compound 124, 6-(bis(4-chlorophenyl)methyl)-N-(1-(2-fluorophenylsulfonyl)piperidin-4-yl)quinazolin-4-amine]	0.002	1.93
O=C(NCCO)c1ccc(N2CCC(Nc3ncnc4ccc(C(c5ccc(Cl)cc5)c5ccc(Cl)cc5)cc34)CC2)cc1 [Compound #84, 4-(4-((6-(bis(4-chlorophenyl)methyl)quinazolin-4-yl)amino)piperidin-1-yl)-N-(2-hydroxyethyl)benzamide]	0.026	0.326
FC(F)(F)c1ccc(C2(Nc3ncnc4ccc(C(c5ccc(Cl)cc5)c5ccc(Cl)cc5)cc34)CC2)cc1 [compound 125, 6-(bis(4-chlorophenyl)methyl)-N-(1-(4-(trifluoromethyl)phenyl)cyclopropyl) quinazolin-4-amine]	0.044	5.94
NC(=O)c1ccc(CNc2ncnc3ccc(C(c4ccc(Cl)cc4)c4ccc(Cl)cc4)cc23)cc1 [compound 56, 4-((6-(bis(4-chlorophenyl)methyl)quinazolin-4-ylamino)methyl)benzamide]	0.446	9.1
NCCCCOc1nc(NCc2cccc(C(F)(F)F)c2)c2cc(C(c3ccc(Cl)cc3)c3ccc(Cl)cc3)ccc2n1 [Compound #31, 2-(4-aminobutoxy)-6-(bis(4-chlorophenyl)methyl)-N-(3-(trifluoromethyl)benzyl)quinazolin-4-amine]	0.077	4.12
O=C(O)c1ccc(S(=O)(=O)N2CCC(Nc3nc(OCCO)nc4ccc(C(c5ccc(Cl)cc5)c5ccc(Cl)cc5)cc34)CC2)cc1 [Compound #39, 4-((4-((6-(bis(4-chlorophenyl)methyl)-2-(2-hydroxyethoxy)quinazolin-4-yl)amino)piperidin-1-yl)sulfonyl)benzoic acid]	0.041	0.514
COC(=O)c1ccc(N2CCC(Nc3ncnc4ccc(C(c5ccc(Cl)cc5)c5ccc(Cl)cc5)cc34)CC2)cc1 [Compound #94, methyl 4-(4-((6-(bis(4-chlorophenyl)methyl)quinazolin-4-yl)amino)piperidin-1-yl)benzoate]	0.004	0.068
O=C(NCCO)c1cccc(N2CCC(Nc3ncnc4ccc(C(c5ccc(Cl)cc5)c5ccc(Cl)cc5)cc34)CC2)c1 [compound 83, 3-(4-(6-(bis(4-chlorophenyl)methyl)quinazolin-4-ylamino)piperidin-1-yl)-N-(2-hydroxyethyl)benzamide]	0.085	3.5

Compound	EC50 [1] [µM]	EC50 [2] [µM]
FC(F)(F)c1ccc(N2CCC(Nc3ncnc4ccc(C(c5ccc(Cl)cc5)c5ccc(Cl)cc5)cc34)CC2)cc1 [compound 129, 6-(bis(4-chlorophenyl)methyl)-N-(1-(4-(trifluoromethyl)phenyl)piperidin-4-yl)quinazolin-4-amine]	0.003	0.072
O=S(=O)(N1CCCC1)N1CCC(Nc2ncnc3ccc(C(c4ccc(Cl)cc4)c4ccc(Cl)cc4)cc23)CC1 [Compound #120, 6-(bis(4-chlorophenyl)methyl)-N-(1-(pyrrolidin-1-ylsulfonyl)piperidin-4-yl)quinazolin-4-amine]	0.004	2.15
Fc1cccc(CNc2ncnc3ccc(C(c4ccc(Cl)cc4)c4ccc(Cl)cc4)cc23)c1 [compound 63, 6-(bis(4-chlorophenyl)methyl)-N-(3-fluorobenzyl)quinazolin-4-amine]	0.01	1.2
O=C(NC(CO)(CO)CO)c1ccc(N2CCC(Nc3ncnc4ccc(C(c5ccc(Cl)cc5)c5ccc(Cl)cc5)cc34)CC2)cc1 [compound 42]	0.18	0.216
O=C(NC(CO)(CO)CO)c1ccc(S(=O)(=O)N2CCC(Nc3ncnc4ccc(C(c5ccc(Cl)cc5)c5ccc(Cl)cc5)cc34)CC2)cc1 [Compound #41, 4-((4-((6-(Bis(4-chlorophenyl)methyl)quinazolin-4-yl)amino)piperidin-1-yl)sulfonyl)-N-(1,3-dihydroxy-2-(hydroxymethyl)propan-2-yl)benzamide]	0.008	1.47
N#Cc1ccc(C(c2ccc(Cl)cc2)c2ccc3ncnc(NC4CCN(S(=O)(=O)C(F)(F)F)CC4)c3c2)cc1 (centres unmarked) [Compound #19, 4-((4-chlorophenyl)(4-((1-((trifluoromethyl)sulfonyl)piperidin-4-yl)amino)quinazolin-6-yl)methyl)benzonitrile]	0.006	0.157
O=S(=O)(N1CCC(Nc2ncnc3ccc(C(c4ccc(Cl)cc4)c4ccc(Br)cc4)cc23)CC1)C(F)(F)F (centres unmarked) [Compound #20, 6-((4-bromophenyl)(4-chlorophenyl)methyl)-N-(1-((trifluoromethyl)sulfonyl)piperidin-4-yl)quinazolin-4-amine]	0.017	0.218
O=C(O)c1ccc(CNc2ncnc3ccc(C(c4ccc(Cl)cc4)c4ccc(Cl)cc4)cc23)cc1 [compound 60, 4-((6-(bis(4-chlorophenyl)methyl)quinazolin-4-ylamino)methyl)benzoic acid]	5.3	> 10
O=C(O)c1cccc(CCNc2ncnc3ccc(C(c4ccc(Cl)cc4)c4ccc(Cl)cc4)cc23)c1 [Compound #2, 3-(2-((6-(bis(4-chlorophenyl)methyl)quinazolin-4-yl)amino)ethyl)benzoic acid]	0.325	1.05
CC(Nc1ncnc2ccc(C(c3ccc(Cl)cc3)c3ccc(Cl)cc3)cc12)c1ccc(C(F)(F)F)cc1 (centres unmarked) [compound 116, 6-(bis(4-chlorophenyl)methyl)-N-(1-(4-(trifluoromethyl)phenyl)ethyl)quinazolin-4-amine]	0.008	2.5
O=C1CC(Nc2ncnc3ccc(C(c4ccc(Cl)cc4)c4ccc(Cl)cc4)cc23)CCN1c1ccccc1 (centres unmarked) [Compound #102, 4-((6-(bis(4-chlorophenyl)methyl)quinazolin-4-yl)amino)-1-phenylpiperidin-2-one]	0.01	> 10
Oc1cccc(CN2CCC(Nc3ncnc4ccc(C(c5ccc(Cl)cc5)c5ccc(Cl)cc5)cc34)CC2)c1 [Compound #28, 3-((4-((6-(bis(4-chlorophenyl)methyl)quinazolin-4-yl)amino)piperidin-1-yl)methyl)phenol]	0.069	> 10
N#CCCOCCOc1nc(NCc2cccc(C(F)(F)F)c2)c2cc(C(c3ccc(Cl)cc3)c3ccc(Cl)cc3)ccc2n1 [Compound #50, 3-(2-((6-(bis(4-chlorophenyl)methyl)-4-((3-(trifluoromethyl)benzyl)amino)quinazolin-2-yl)oxy)ethoxy)propanenitrile]	0.011	> 10
Clc1ccc(C(c2ccc(Cl)cc2)c2ccc3ncnc(NC4CCN(c5ncccn5)CC4)c3c2)cc1 [Compound #139, 6-(bis(4-chlorophenyl)methyl)-N-(1-(pyrimidin-2-yl)piperidin-4-yl)quinazolin-4-amine]	0.002	0.771
O=C(CC(=O)N1CCC(Nc2ncnc3ccc(C(c4ccc(Cl)cc4)c4ccc(Cl)cc4)cc23)CC1)NCCO [compound 82, 3-(4-(6-(bis(4-chlorophenyl)methyl)quinazolin-4-ylamino)piperidin-1-yl)-N-(2-hydroxyethyl)-3-oxopropanamide]	5.75	> 10
